Experimental data published in publication PMC6009893, “Synthesis, biological activity and molecular modelling studies of shikimic acid derivatives as inhibitors of the shikimate dehydrogenase enzyme of Escherichia coli” (Journal of Enzyme Inhibition and Medicinal Chemistry, 2018).
In brackets after ≈: the same amount, converted by molar mass.

Experiments:
E. coli strain JM101 = assay: Minimal inhibitory concentration (MIC), broth microdilution; assay type: cell-based; conditions: Escherichia coli, LB media, 37 °C, 16 h, tested 4-512 mg/l, duplicate
Procedure: The broth microdilution method[25] was used to determine the MIC of synthesised molecules against E. coli strain JM101. Cells were grown to exponential phase in LB media (OD600nm ∼0.5) and the cultures were diluted to a concentration of 2 × 10^5 colony-forming units/ml. The 96-well plates containing 75 µl of LB media and synthesised compounds were inoculated with 75 µl of the bacterial suspension and shaken at 37 °C for 16 h. Compounds were tested in a range of doubling concentrations between 4 and 512 mg/l with a final dimethylsulphoxide concentration of 0.8% (v/v). LB media supplemented with kanamycin was used as a positive control, and the OD600nm of the DMSO-treated control was taken as representative of 100% bacterial growth. […] Experiments were performed in duplicate.

[1] = molecular target: T1, EcSDH (shikimate dehydrogenase enzyme of Escherichia coli) (Escherichia coli, UniProt P15770); assay: EcSDH enzymatic activity assay (NADPH oxidation at 340 nm, DHS as substrate); assay type: biochemical; conditions: for KI (dissociation constant for the enzyme-substrate-inhibitor complex): 25 °C, NADPH 0.21 mM, DHS 0.0625-1.5 mM, mixed type inhibition, triplicate
T1 construct: 6-Histidine tag (pCold-I) (N, cleaved yes); made in house; host or cells: E. coli ΔaroE::KanR (JW3242, Keio collection) carrying pCold-EcSDH
T1 sequence (P15770 whole entry): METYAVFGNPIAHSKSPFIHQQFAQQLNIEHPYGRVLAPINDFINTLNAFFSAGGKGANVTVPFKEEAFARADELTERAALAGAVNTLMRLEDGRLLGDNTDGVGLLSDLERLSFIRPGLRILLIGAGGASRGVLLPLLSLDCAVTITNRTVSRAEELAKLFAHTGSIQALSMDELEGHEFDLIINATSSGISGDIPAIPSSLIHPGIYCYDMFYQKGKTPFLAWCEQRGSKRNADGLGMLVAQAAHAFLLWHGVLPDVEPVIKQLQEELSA
Procedure: The enzymatic activity of EcSDH was assayed at 25 °C by monitoring the oxidation of NADPH at 340 nm (ϵ = 6.18 × 10^3 M^−1 cm^−1). All assays were performed in a Genesys 10 S UV-vis spectrophotometer (Thermo Fisher Scientific Inc., Waltham, MA). The reaction mix contained (final volume 200 µl) KH2PO4 100 mM pH 7.5, NADPH 0.21 mM, DHS, synthesised molecules and diluted enzyme. Stored enzyme stocks (200 U/ml) were diluted 1:100 in KH2PO4 100 mM pH 7.5 before use. The reaction was initiated by addition of 2 µl of the diluted EcSDH enzyme and absorbance was measured within 2 min. During assays NADPH concentration was fixed at 0.21 mM, DHS concentrations were 0.0625, 0.125, 0.25, 0.5, 1 and 1.5 mM and concentrations of amides were 0, 0.25, 0.5, 1 and 1.5 mM. Experiments were performed in triplicate.
To determine the inhibition mode Lineweaver–Burk plots of the inverse of velocities (1/v) versus the inverse of substrate concentration 1/[S] were obtained. The Michaelis–Menten constant (Km), maximum velocity (Vmax) and inhibition constants (Ki and KI) were analysed using Equation (1)[22]^,[23]. Where I represent the inhibitor concentration, KI is defined as the dissociation constant for the enzyme-substrate-inhibitor complex and Ki as the dissociation constant for the enzyme-inhibitor complex. Kinetic data were processed by nonlinear regression using the Origin software (OriginLab, Northampton, MA).
Dissociation constants were related to IC50 values following the Cheng–Prusoff Equation (2)[24]. Where IC50 represents the concentration of inhibitor producing 50% of enzyme inhibition. The determined Km of DHS was 92.29 ± 2.70 µM, and 125 µM of DHS was delimited as the substrate concentration [S]: (1) v=Vmax [S]/S1+I/KI+ Km(1+ [I]/Ki) (2) IC50= Km+[S]/Km/Ki+ ([S]/KI).
The inhibitory effect of SA amide-derivatives was tested against EcSDH at […]. To characterise the enzymatic activity for its more biological meaningful reaction, the enzyme was assayed in the direction of SA formation, for this DHS was used as the substrate. The activity of EcSDH enzyme was determined in the presence of different concentrations of synthesised compounds, and Lineweaver–Burk plots of (1/v) versus 1/[S] were obtained. […] To characterise the kinetic parameters, data were analysed using Equation (1). For every synthesised amide Ki < KI indicating a stronger affinity for the substrate free instead of bounded substrate enzyme. […] Despite the similar magnitude of inhibition, it appears that inhibition activity smoothly increases with increase in the alkyl chain length. […] The similar inhibitory effect of diamides may arise with strong participation of the extra SA substituent.

[2] = system: SDH enzyme of Escherichia coli (EcSDH); set-up: method as in earlier work; conditions: cited from earlier work
SDH of H. pylori = molecular target: SDH of H. pylori; set-up: method as in PMID 16972983; conditions: SA; non-competitive inhibitor; cited from earlier work
H. pylori = system: H. pylori; set-up: method as in PMID 16972983; conditions: in vitro antibacterial activity; cited from earlier work
[3] = system: SDH of Pseudomonas putida; set-up: method as in PMID 24632659; conditions: cited from earlier work
Pisum sativum SDH enzyme = molecular target: Pisum sativum SDH enzyme; set-up: method as in PMID 13686343; conditions: SA; competitive inhibition; cited from earlier work

Structure (SMILES) | MIC (E. coli strain JM101) [µg/mL] | IC50 [1] [µM] | Ki [1] [µM] | KI (dissociation constant for the enzyme-substrate-inhibitor complex) [1] [µM] | other results
O=C(NCCNC(=O)C1=C[C@@H](O)[C@@H](O)[C@H](O)C1)C1=C[C@@H](O)[C@@H](O)[C@H](O)C1 [Dim2, (3R,3'R,4S,4'S,5R,5'R)-N,N'-(ethane-1,2-diyl)bis(3,4,5-trihydroxycyclohex-1-ene-1-carboxamide)] | 512 (≈ 1370 µM) | 588 ± 55 | 416 ± 69 | 831 ± 12 | 
O=C(NCCCNC(=O)C1=C[C@@H](O)[C@@H](O)[C@H](O)C1)C1=C[C@@H](O)[C@@H](O)[C@H](O)C1 [Dim3, (3R,3'R,4S,4'S,5R,5'R)-N,N'-(propane-1,3-diyl)bis(3,4,5-trihydroxycyclohex-1-ene-1-carboxamide)] | 512 (≈ 1330 µM) | 589 ± 56 | 400 ± 50 | 896 ± 72 | 
O=C(NCCCCNC(=O)C1=C[C@@H](O)[C@@H](O)[C@H](O)C1)C1=C[C@@H](O)[C@@H](O)[C@H](O)C1 [Dim4, (3R,3'R,4S,4'S,5R,5'R)-N,N'-(butane-1,4-diyl)bis(3,4,5-trihydroxycyclohex-1-ene-1-carboxamide)] | 512 (≈ 1280 µM) | 652 ± 65 | 458 ± 81 | 945 ± 13 | 
O=C(NCCCO)C1=C[C@@H](O)[C@@H](O)[C@H](O)C1 [Mon3, (3R,4S,5R)-3,4,5-trihydroxy-N-(3-hydroxypropyl)cyclohex-1-ene-1-carboxamide] | 512 (≈ 2210 µM) | 949 ± 33 | 733 ± 67 | 1214 ± 58 | 
O=C(NCCCCO)C1=C[C@@H](O)[C@@H](O)[C@H](O)C1 [Mon4, (3R,4S,5R)-3,4,5-trihydroxy-N-(4-hydroxybutyl)cyclohex-1-ene-1-carboxamide] | 512 (≈ 2090 µM) | 882 ± 54 | 717 ± 71 | 1145 ± 130 | 
O=C(NCCCCCO)C1=C[C@@H](O)[C@@H](O)[C@H](O)C1 [Mon5, (3R,4S,5R)-3,4,5-trihydroxy-N-(5-hydroxypentyl)cyclohex-1-ene-1-carboxamide] | 512 (≈ 1970 µM) | 953 ± 10 | 642 ± 34 | 1483 ± 91 | 
O=C(NCCCCCCO)C1=C[C@@H](O)[C@@H](O)[C@H](O)C1 [Mon6, (3R,4S,5R)-3,4,5-trihydroxy-N-(6-hydroxyhexyl)cyclohex-1-ene-1-carboxamide] | 512 (≈ 1870 µM) | 829 ± 49 | 587 ± 49 | 1188 ± 26 | 
O=C(O)C1=C[C@@H](O)[C@@H](O)[C@H](O)C1 [SA, (-)-shikimic acid] |  |  |  |  | Ki [2]: 160 µM
COc1cc(/C=C/C(=O)CC(=O)/C=C/c2ccc(O)c(OC)c2)ccc1O [curcumin] |  |  |  |  | Ki (SDH of H. pylori): 6 µM; MIC (H. pylori): 16 µg/mL (≈ 43.4 µM)
O=C(O[C@@H]1Cc2c(O)cc(O)cc2O[C@@H]1c1cc(O)c(O)c(O)c1)c1cc(O)c(O)c(O)c1 [epigallocatechin gallate] |  |  |  |  | IC50 [3]: 3 µM
O=C(O)c1cc(O)c(O)c(O)c1 [gallic acid] |  |  |  |  | Ki (Pisum sativum SDH enzyme): 380 µM
O=C(O)c1ccc(O)c(O)c1 [protocatechuic acid] |  |  |  |  | Ki (Pisum sativum SDH enzyme): 750 µM
COc1cc(C=O)ccc1O [vanillin] |  |  |  |  | Ki (Pisum sativum SDH enzyme): 93 µM
